These molecules were tested against T1, 3-dehydroquinate dehydratase (Mycobacterium tuberculosis, UniProt P9WPX7) (assay: Inhibition of Mycobacterium tuberculosis type II dehydroquinase at 25 degree C pH 8.2).
T1 sequence (P9WPX7 whole entry): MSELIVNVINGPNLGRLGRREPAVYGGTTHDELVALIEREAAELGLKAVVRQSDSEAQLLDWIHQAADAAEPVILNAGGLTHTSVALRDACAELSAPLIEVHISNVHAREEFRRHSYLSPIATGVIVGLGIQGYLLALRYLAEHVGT

Question: With O=C(O)[C@]1(O)C=C(c2cc(F)cc(F)c2)[C@@H](O)[C@H](O)C1 as the molecule, how does the Ki read?
Answer: 2440 nM

Question: O=C(O)[C@]1(O)C=C(c2ccsc2)[C@@H](O)[C@H](O)C1 was tested. Which Ki did it give?
Answer: 590 nM

Question: Which Ki does the source give for O=C(O)[C@]1(O)C=C(c2cccc([N+](=O)[O-])c2)[C@@H](O)[C@H](O)C1 here?
Answer: 54 nM

Question: For O=C(O)[C@]1(O)C=C(c2cccc(O)c2)[C@@H](O)[C@H](O)C1, which Ki is on record?
Answer: 95000 nM

Question: O=C(O)[C@]1(O)C=C(c2cccc(C(F)(F)F)c2)[C@@H](O)[C@H](O)C1 was tested. Which Ki did it give?
Answer: 2120 nM

Question: For O=C(O)c1cccc(C2=C[C@@](O)(C(=O)O)C[C@@H](O)[C@@H]2O)c1, which Ki is on record?
Answer: 150000 nM

Question: For O=C(O)[C@]1(O)C=C(c2ccccc2)[C@@H](O)[C@H](O)C1, which Ki is on record?
Answer: 1500 nM

Question: Which Ki does the source give for O=C(O)[C@]1(O)C=C(c2ccc(F)cc2)[C@@H](O)[C@H](O)C1 here?
Answer: 1800 nM

Question: With O=C(O)[C@]1(O)C=C(c2ccc(C(F)(F)F)cc2)[C@@H](O)[C@H](O)C1 as the molecule, how does the Ki read?
Answer: 17000 nM

Question: With O=C(O)[C@]1(O)C=C(c2cccc(F)c2)[C@@H](O)[C@H](O)C1 as the molecule, how does the Ki read?
Answer: 1500 nM

Question: Which Ki does the source give for O=C(O)[C@]1(O)C/C(=N\O)[C@@H](O)[C@H](O)C1 here?
Answer: 20000 nM

Question: O=C(O)[C@]1(O)C=C(F)[C@@H](O)[C@H](O)C1 was tested. Which Ki did it give?
Answer: 10000 nM

Question: With O=C(O)[C@]1(O)C=C(c2ccoc2)[C@@H](O)[C@H](O)C1 as the molecule, how does the Ki read?
Answer: 830 nM

Question: With O=C(O)[C@]1(O)C=C(c2cccnc2)[C@@H](O)[C@H](O)C1 as the molecule, how does the Ki read?
Answer: 45000 nM

Source: ChEMBL document CHEMBL1140333, “Structure-based design, synthesis, and biological evaluation of inhibitors of Mycobacterium tuberculosis type II dehydroquinase” (J Med Chem, 2005)
